Source: article PMC6609541, “Enterohepatic circulation of glucuronide metabolites of drugs in dog” (Pharmacology Research & Perspectives, 2019)
Read-outs that look alike come from different tables or passages of the source.

Tests used:
UGT [1] = test: Liver microsomal glucuronidation assay (human); assay type: in vitro ADME; conditions: human liver microsomes, pH 7.5, with 2% BSA
Protocol: (§1) Intrinsic clearance of the compounds by glucuronidation was conducted in human and dog liver and kidney microsomes. Microsomes (0.5 mg/mL) with or without 2% bovine serum albumin (BSA), 100 mmol/L Tris‐HCl buffer, (pH 7.5), containing 5 mmol/L MgCl2 and 50 µg of alamethicin were mixed and placed on ice for 15 minutes. Canagliflozin or DPTQ (2 µmol/L final concentration) were added, and the mixture was pre‐incubated at 37°C for 3 minutes. A 0‐minute time point was obtained and the reaction initiated by the addition of UDPGA (5 mmol/L final concentration). Aliquots of the incubation (50 µL) were removed at various time points 5, 15, 30, 60 and 120 minutes, and added to the quench solution (1:1 acetonitrile:water). The zero minute time points were also quenched in the same manner. Substrate concentrations were then measured by LC/MS and the intrinsic clearance values (μL/min/mg protein) were calculated using following equation. CLint=-kdep×incubation volume/mg protein
(§2) In which the depletion rate constant (k dep) is the slope determined using linear regression from the log transformed % remaining on the y‐axis vs time on the x‐axis (min^− ^1). […] To determine the unbound intrinsic clearances the microsomal Clint values were divided by the respective microsomal fraction unbound values. The microsomal unbound fraction both with and without 2% BSA was determined as described previously.15

UGT (glucuronidation) [2] = test: Liver microsomal glucuronidation assay (human); assay type: in vitro ADME; conditions: liver microsomes, pH 7.5, with 2% BSA, Clint divided by microsomal unbound fraction, read-out: Clint,u, Liver microsomes
Protocol: as §1, §2

P-gp = molecular target: T1, P-gp (Homo sapiens, UniProt P08183); test: Bi‐directional transport across MDCKII cells expressing human P‐gp; assay type: in vitro ADME; conditions: human, MDCK-MDR1, with 2.5 μmol/L LSN335984, uninhibited ratio divided by inhibited ratio; NER >3.0 = P‐gp substrate; read-out: Net efflux ratio
T1 construct: host or cells: MDCKII
T1 sequence (P08183 whole entry): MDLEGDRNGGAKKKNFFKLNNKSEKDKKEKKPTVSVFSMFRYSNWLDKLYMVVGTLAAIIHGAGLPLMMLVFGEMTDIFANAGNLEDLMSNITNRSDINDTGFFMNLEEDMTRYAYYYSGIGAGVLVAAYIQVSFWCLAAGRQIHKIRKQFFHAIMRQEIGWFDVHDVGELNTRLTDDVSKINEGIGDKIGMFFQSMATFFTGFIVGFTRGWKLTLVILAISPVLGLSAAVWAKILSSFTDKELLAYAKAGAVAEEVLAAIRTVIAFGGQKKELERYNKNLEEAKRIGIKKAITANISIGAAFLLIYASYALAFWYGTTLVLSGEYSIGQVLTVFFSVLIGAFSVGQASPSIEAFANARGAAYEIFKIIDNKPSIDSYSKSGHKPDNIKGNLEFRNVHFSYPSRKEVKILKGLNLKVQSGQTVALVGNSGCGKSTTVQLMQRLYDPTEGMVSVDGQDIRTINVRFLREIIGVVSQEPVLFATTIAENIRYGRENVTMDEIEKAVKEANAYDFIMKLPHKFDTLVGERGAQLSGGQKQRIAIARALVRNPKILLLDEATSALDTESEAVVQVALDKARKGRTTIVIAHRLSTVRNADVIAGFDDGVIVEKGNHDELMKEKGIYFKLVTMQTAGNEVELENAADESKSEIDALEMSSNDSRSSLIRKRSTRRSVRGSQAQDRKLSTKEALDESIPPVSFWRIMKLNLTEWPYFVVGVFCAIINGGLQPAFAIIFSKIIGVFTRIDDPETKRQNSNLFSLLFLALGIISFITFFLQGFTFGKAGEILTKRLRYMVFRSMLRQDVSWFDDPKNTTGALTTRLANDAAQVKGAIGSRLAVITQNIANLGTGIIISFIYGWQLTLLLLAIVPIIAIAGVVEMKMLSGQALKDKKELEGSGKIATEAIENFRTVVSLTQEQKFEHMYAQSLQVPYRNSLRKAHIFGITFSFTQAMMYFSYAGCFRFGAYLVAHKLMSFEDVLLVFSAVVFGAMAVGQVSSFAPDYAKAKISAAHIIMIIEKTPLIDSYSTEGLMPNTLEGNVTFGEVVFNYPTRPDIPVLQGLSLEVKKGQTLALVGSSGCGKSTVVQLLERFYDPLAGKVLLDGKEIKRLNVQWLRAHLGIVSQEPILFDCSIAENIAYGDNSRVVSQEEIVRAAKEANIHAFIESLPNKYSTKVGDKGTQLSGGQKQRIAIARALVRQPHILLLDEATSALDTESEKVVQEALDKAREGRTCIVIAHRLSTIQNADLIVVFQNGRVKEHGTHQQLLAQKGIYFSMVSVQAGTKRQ
Protocol: MDCKII cells stably expressing human wild‐type P‐gp were obtained from the Netherlands Cancer Institute Amsterdam, The Netherlands). MDCK cells were maintained and the assay was conducted essentially as described previously.12, 13 Transport was measured in both directions across uninhibited and inhibited cell monolayers using a substrate concentration of 5 μmol/L diluted from a 10 mmol/L DMSO stock solution final DMSO concentration of 0.05%) and a single 60‐min time interval.

[3] = test system: cryopreserved dog hepatocytes; test: Hepatocyte metabolite profile with and without ABT (dog); assay type: in vitro ADME; conditions: 4 h, 2 μmol/L
Protocol: (§3) Cryopreserved dog and human hepatocytes were obtained from BioreclamationIVT (Baltimore, MD). […] A stock solution of canagliflozin and DTPQ was added to medium to give a final incubation concentration of 2 μmol/L. The incubations including the media and cells were quenched after 4 hours with an equal volume of acetonitrile containing 200 ng/mL niflumic acid as internal standard. Samples were centrifuged at 3500 g for 10 minutes and the supernatant was analyzed by liquid chromatography coupled to a diode array UV detection and mass spectrometry system consisting of the Acquity ultra‐performance liquid chromatography column, Synapt G2‐S mass spectrometer, and an ultra‐performance liquid chromatography photodiode array detector (Waters, Milford, MA). The chromatographic separation of metabolites was achieved on a Waters 1.7‐μm Acquity BEH C18 (100 × 2.1 mm) column maintained at 60°C. The mobile phase consisted of solvent A (0.2% formic acid in water for DPTQ and 10 mmol/L ammonium acetate in water for canagliflozin) and solvent B (100% acetonitrile). The samples were eluted, at a flow rate of 0.5 mL/min with a gradient for 5 minutes. The LC/MS full scan data were processed by Metabolynx (Waters, Milford, MA) to identify metabolites. Product ion spectra were acquired to confirm the metabolites. The mass spectrometer was operated in positive ion mode with an electrospray ionization source. The parameters for the chamber were: capillary 1.0 kV, sample cone 50 V, source temperature 120°C, desolvation 500°C, and collision energy 25 V. The peak areas for parent, metabolite and internal standard were integrated to allow for comparison between conditions.

[4] = test system: cryopreserved human hepatocytes; test: Hepatocyte intrinsic clearance with and without ABT (human); assay type: in vitro ADME; conditions: for % of inhibition by ABT: human hepatocytes, inhibition of Clint by 1 mmol/L ABT (fm by P450); for Hepatic fm by UGT: human, in hepatocytes
Protocol: (§4) The intrinsic clearance was determined in cryopreserved dog and human hepatocytes essentially as described previously.4 The assay incubation contained 0.3 µmol/L compound and hepatocytes at a concentration of 10^6 cells/mL, with and without 30 minutes pre‐incubation of 1 mmol/L ABT. Intrinsic clearance measurement was initiated by the addition of compound and the incubation quenched at 0.6, 15, 30, 60 and 90 minutes for DPTQ, and at 0.6, 15, 30, 60, 120 and 240 minutes by addition of acetonitrile with 0.1% formic acid. Samples were centrifuged at 3500 g for 10 minutes and the supernatant was analyzed to quantify parent compound loss and the intrinsic clearance values (μL/min/10^6 cells) were calculated using following equation for incubations with and without ABT. CLint=-kdep×incubation volume/10^6cells
(§5) In which the depletion rate constant (k dep) is the slope determined using linear regression from the log transformed percentage remaining on the y‐axis vs time on the x‐axis (min^− ^1). The fraction of metabolism (fm) by P450 was determined by the measurement of the percentage of inhibition of Clint by ABT.

[5] = as above; assay type: in vitro ADME; conditions: cryopreserved human hepatocytes, human hepatocytes, 0.3 µmol/L compound
Protocol: as §4, §5

[6] = test system: human intestinal microsomes; test: Intestinal glucuronidation in human intestinal microsomes; assay type: in vitro ADME; conditions: data not shown
[7] = test system: cryopreserved human hepatocytes; test: Hepatocyte metabolite profile with and without ABT (human); assay type: in vitro ADME; conditions: 4 h, 2 μmol/L
Protocol: as §3

UGT [8] = test: Liver microsomal glucuronidation assay (dog); assay type: in vitro ADME; conditions: dog liver microsomes, pH 7.5, dog, with 2% BSA
Protocol: as §1, §2

UGT (glucuronidation) [9] = test: Liver microsomal glucuronidation assay (dog); assay type: in vitro ADME; conditions: liver microsomes, pH 7.5, dog, without BSA
Protocol: as §1, §2

UGT (glucuronidation) [10] = test: Kidney microsomal glucuronidation assay (human); assay type: in vitro ADME; conditions: kidney microsomes, pH 7.5, human, with 2% BSA
Protocol: as §1, §2

[11] = test system: human intestinal microsomes; parameters: method as in PMID 27862160; conditions: human intestinal microsomes ref 6; cited from earlier work
[12] = with 1 mmol/L ABT, 30 minutes pre-incubation, 1 mmol/L ABT pre‐incubation 30 minutes, read-out: Clint with ABT
[13] = 10^6 cells/mL, read-out: Clint without ABT
[14] = Clint divided by microsomal unbound fraction, read-out: Clint,u, Liver microsomes

Compound | microsomal CLint at 2 µmol/L (UGT [1]) [µL/min/mg] | microsomal CLint at 2 µmol/L (UGT (glucuronidation) [2]) [µL/min/mg] | efflux ratio at 60 min, 5 μmol/L (P-gp) | Peak area (+ABT) [3] | Peak area (‐ABT) [3] | % of inhibition by ABT [4] [%] | Hepatic fm by UGT [4] | hepatocyte CLint at 0.3 µmol/L [5, 12] [µL/min/1e6 cells] | hepatocyte CLint at 0.3 µmol/L [5, 13] [µL/min/1e6 cells] | intestinal glucuronidation [6] | Peak area (+ABT) [7] | Peak area (‐ABT) [7] | microsomal CLint at 2 µmol/L (UGT [8]; [14]) [µL/min/mg] | microsomal CLint at 2 µmol/L (UGT [8]; ND = Clint < 1.8, read-out: Clint, Liver microsomes) [µL/min/mg] | microsomal CLint at 2 µmol/L (UGT (glucuronidation) [9]; 2 µmol/L, 0.5 mg/mL, UDPGA, ND = Clint < 1.8, read-out: Clint, Liver microsomes) [µL/min/mg] | microsomal CLint at 2 µmol/L (UGT (glucuronidation) [9]; [14]) [µL/min/mg] | microsomal CLint at 2 µmol/L (UGT (glucuronidation) [10]; Clint divided by microsomal unbound fraction, read-out: Clint,u, Kidney microsomes) [µL/min/mg] | microsomal CLint at 2 µmol/L (UGT (glucuronidation) [10]; ND = Clint < 1.8, read-out: Clint, Kidney microsomes) [µL/min/mg] | intestinal glucuronidation [11]
C[C@H]1c2cccc(CC(C)(C)O)c2C[C@H](CO)N1C(=O)Cc1c(Cl)cccc1Cl [DPTQ, 2‐(2,6‐dichlorophenyl)‐1‐((1S,3R)‐5‐(2‐hydroxy‐2‐methylpropyl)‐3‐(hydroxymethyl)‐1‐methyl‐3,4‐dihydroisoquinolin‐2(1H)‐yl)ethan‐1‐one] | 5.6 | 47.1 | 1.3 | 244 | 33 | 7.8 ± 9.6 | High (high 70%‐100% in hepatocytes) | 5.5 ± 2.2 | 5.8 ± 2 | negligible | 2364 | 2810 | 667 | 79.4 | 99 | 123 | – | – | –
Cc1ccc([C@@H]2O[C@H](CO)[C@@H](O)[C@H](O)[C@H]2O)cc1Cc1ccc(-c2ccc(F)cc2)s1 [Canagliflozin] | 7.6 | 422 | – | 8448 | 7808 | 20.1 ± 5.1 | High (high 70%‐100% in hepatocytes) | 10.1 ± 1.4 | 12.7 ± 2 | – | 2019 | 3414 | – | – | – | – | 222 | 4 | negligible
